Measurements: patent publication US20110124607A1, “COMPOSITION FOR REGULATION CELLULAR SENESCENCE COMPRISING LYSOPHOSPHATIDIC ACID AND INHIBITOR OF ADENYLYL CYCLASE AS ACTIVE INGREDIENTS” (priority 2008, published 2011)

Key:
Format in all cases: cell-based, human
p21waf1/cip1 [1] = experiment: Immuno-blotting of p21waf1/cip1; settings: for p21 expression after suppressing PKA: senescent cells pre-treated with 10 mM PKA inhibitor Rp-cAMP for one hour; for p21 expression (immuno-blotting): senescent cells, 30 μM LPA, 300 μM ACI, 10 mM AMPKI, 10 mM AICAR
Procedure: (A) and (B): Young and senescent cells were serum-starved for 2 days, followed by treatment with 10 mM of AMPK inhibitor […]) or 10 mM of AMPK activator AICAR(B) for 4 days. Proteins were extracted from the treated cells and the levels of AMPKα and p-Thr172-AMPKα, total p53, p-Ser15-p53 and […] measured by immuno-blotting. (C) and (D): Young cells (C) and senescent cells (D) were treated with 10 mM AMPKI or 10 mM AICAR and cultured for 4 days, followed by measurement of cell proliferation by cell counting. At this time, the experiment was repeated three times (p<0.001). (A) and (B) are photographs illustrating the results of immuno-blotting. Precisely, sub-cultured young cells (PD 18: A) and senescent cells (PD 64: B) were treated with 30 μM of LPA […] and ACI singly or together, followed by further culture for 1, 2, and 4 days. Proteins were extracted from the cultured cells and the levels of AMPKα, […] β-actin were quantified by immuno-blotting. (A) and (B) are photographs illustrating the results of immuno-blotting. Precisely, senescent cells (PD 64) were pre-treated with 10 mM of PKA inhibitor Rp-cAMP for one hour, followed by treatment with LPA(A) or ACI(B). After culturing the cells for 1, 2, and 4 days, proteins were extracted from the cultured cells and the levels of AMPKα, […] β-actin were quantified by immuno-blotting using 45 μg of the protein. To analyse protein expression, human fibroblasts were lysed in cold lysis buffer (25 mM Hepes, pH 8.0, 150 mM NaCl, 1 mM EDTA, 1 mM Na3VO4, 1 mM NaF, 1% Triton X-100 and protease inhibitors), followed by centrifugation at 4° C. at 9,000 rpm for 10 minutes to obtain supernatant. Protein in the extract was quantified […]. SDS-PAGE electrophoresis was performed with equal amount of the protein (45 μg) to separate. The separated protein was transferred onto NC membrane from the electrophoresis gel. Non-specific protein binding was blocked by blocking the blot (transferred NC membrane) using TTBS […] containing 5% skim milk for one hour. Then, antigen-antibody reaction was induced with diluted primary antibody at 4° C. for overnight. The blot was washed with TTBS, followed by reaction with horseradish peroxidase conjugated anti-IgGs diluted in TTBS containing 5% skim milk (1:5000) at room temperature for one hour. The blot was washed again with TTBS to eliminate non-specific binding of antigen-antibody. Photographs were developed/printed on X-ray film (Kodak) using ECL kit (Pierce) containing peroxidase substrate to identify each protein.

p-Ser431-LKB1 = experiment: Immuno-blotting of p-Ser431-LKB1; settings: 30 μM LPA, 300 μM ACI, 1, 2, 4 days
Procedure: (§1) FIG. 8 is a set of photographs illustrating the effects of LPA and ACI on LKB1 phosphorylation in senescent cells. Precisely, sub-cultured young cells (PD 18) and senescent cells (PD64) were treated with 30 μM of LPA or 300 μM of LPA and ACI singly or together. After culturing the cells for 1, 2, and 4 days, proteins were extracted from the cultured cells and the levels of LKB1, p-Ser431-LKB1 and β-actin were quantified by immuno-blotting using 45 μg of the protein.
(§2) To analyse protein expression, human fibroblasts were lysed in cold lysis buffer (25 mM Hepes, pH 8.0, 150 mM NaCl, 1 mM EDTA, 1 mM Na3VO4, 1 mM NaF, 1% Triton X-100 and protease inhibitors), followed by centrifugation at 4° C. at 9,000 rpm for 10 minutes to obtain supernatant. Protein in the extract was quantified […]. SDS-PAGE electrophoresis was performed with equal amount of the protein (45 μg) to separate. The separated protein was transferred onto NC membrane from the electrophoresis gel. Non-specific protein binding was blocked by blocking the blot (transferred NC membrane) using TTBS […] containing 5% skim milk for one hour. Then, antigen-antibody reaction was induced with diluted primary antibody at 4° C. for overnight. The blot was washed with TTBS, followed by reaction with horseradish peroxidase conjugated anti-IgGs diluted in TTBS containing 5% skim milk (1:5000) at room temperature for one hour. The blot was washed again with TTBS to eliminate non-specific binding of antigen-antibody. Photographs were developed/printed on X-ray film (Kodak) using ECL kit (Pierce) containing peroxidase substrate to identify each protein.
It has been recently discovered that the tumor suppressor gene LKB1 is a member of AMPKK family (Hawley et al., 2003; Shaw et al., 2004; Woods et al., 2003a). Ser431-LKB1 phosphorylation promotes cell growth in the activated form of LKB1 (Sapkota et al., 2001). So, in this experiment, it was examined what effect the single treatment or co-treatment of LPA and ACI has on the expressions of p-Ser431-LKB1, LKB1 and β-actin (FIG. 8). […] Meanwhile, LKB1 expression therein was not changed.

p21waf1/cip1 [2] = experiment: Immunofluorescent staining of p21; settings: 30 μM LPA, 300 μM ACI, day 2 and day 4
Procedure: FIG. 3 is a set of photographs illustrating the effect of LPA and ACI on the expressions of p21 and cyclin-D1 in young and senescent cells. Particularly, a-f, g-l and m-r are photographs illustrating that sub-cultured young cells (PD 20: Y) and senescent cells (PD 65: S) were serum-starved for 48 hours respectively, followed by treatment of LPA (a-f) and ACI (g-l) singly or together (m-r), and after culturing for 1, 2, and 4 days, the cells were fixed in 4% hydrogen peroxide, and stained with p21waf1/cip1 (A) and cyclin D1 (B) antibodies, followed by confirming immunofluorescence. At this time, nucleus was stained with DAPI.
Coverslips were placed on 24 well plate on which required amounts of young and senescent cells were distributed. Media were eliminated and the treated cells were washed with PBS twice. Then, the cells were fixed with 4% hydrogen peroxide. Non-specific protein staining was blocked using PBS containing 2% BSA (blocking serum). The cells were stained with primary antibody such as anti-AMPKα, anti-p-Thr172-AMPKα, anti-p-Ser485/491-AMPKα, anti-p53, anti-p-Ser15-p53, anti-p21waf1/cip1, and anti-cyclin D1. To stain nucleus, DAPI (1:1000) was also added, followed by observation under Zeiss LSM 510 laser scanning microscope.
Cells were treated with 30 μM of LPA, 300 μM of ACI or LPA+ACI for 4 days, followed by immunofluorescence to investigate p21 and cyclin D1 expressions (FIG. 3A). As a result, when young cells were treated with ACI alone or LPA+ACI, p21 expression was increased on day 2 and day 4 (FIG. 3A).

LKB1 = experiment: Immuno-blotting of LKB1; settings: 1, 2, 4 days
Procedure: as §1
as §2, with “The blot was washed with TTBS, followed by reaction with horseradish peroxidase conjugated anti-IgGs diluted in TTBS containing 5% skim milk (1:5000) at room temperature for one hour. The blot was washed again with TTBS to eliminate non-specific binding of antigen-antibody. Photographs were developed/printed on X-ray film (Kodak) using ECL kit (Pierce) containing peroxidase substrate to identify each protein.” left out

Compound | p21 expression after suppressing PKA (p21waf1/cip1 [1]) | p21 expression (immuno-blotting) (p21waf1/cip1 [1]) | Ser431-LKB1 phosphorylation (p-Ser431-LKB1; senescent cells) | Ser431-LKB1 phosphorylation (p-Ser431-LKB1; young cells) | p21 expression (immunofluorescence) (p21waf1/cip1 [2]; senescent cells) | p21 expression (immunofluorescence) (p21waf1/cip1 [2]; young cells) | LKB1 expression (LKB1; senescent cells, 300 μM ACI) | LKB1 expression (LKB1; young cells, 30 μM LPA)
Nc1ncnc2c1ncn2C1CCCO1 (stereo not shown) [ACI, 9-(tetrahydro-2′-furyl)adenine] | not changed | reduced | reduced | increased | reduced | increased | reduced | –
lysophosphatidic acid [LPA] | not changed at all | reduced | gradually increased | gradually reduced | – | decrease | – | not changed
